Data taken from ChEMBL document CHEMBL1123987, “Oral absorption of cephalosporin antibiotics. 3. Synthesis and biological properties of 7 alpha-methoxy-7 beta-(arylacetamido)-3-chloro-3-cephem-4-carboxylic acids” (1988).
Values after ≈ are worked out from the molar mass of the structure shown.

Experiments:
Format in all cases: functional
[1] = tested on: Streptococcus pneumoniae; experiment: Minimum inhibitory concentration against Streptococcus pneumoniae
[2] = tested on: Staphylococcus aureus; experiment: Minimum inhibitory concentration against Staphylococcus aureus
[3] = tested on: Streptococcus pyogenes; experiment: Minimum inhibitory concentration against Streptococcus pyogenes
[4] = tested on: Haemophilus influenzae; experiment: Minimum inhibitory concentration against H influenzae(beta-lactamase (-))
[5] = tested on: Escherichia coli; experiment: Minimum inhibitory concentration against Escherichia coli
[6] = tested on: Haemophilus influenzae; experiment: Minimum inhibitory concentration against Haemophilus influenzae (beta-lactamase (+))
[7] = tested on: Haemophilus influenzae; experiment: Minimum inhibitory concentration against H influenzae (beta-lactamase (-))

Work on `CO[C@@]1(NC(=O)Cc2csc(N)n2)C(=O)N2C(C(=O)O)=C(Cl)CSC21` (some centres not stated) yielded an MIC [1] of 0.5 µg/mL (≈ 1.24 µM), an MIC [2] of 16 µg/mL (≈ 39.5 µM) and an MIC [3] of 1 µg/mL (≈ 2.47 µM). It also gave an MIC [4] of 16 µg/mL (≈ 39.5 µM), an MIC [5] of 8 µg/mL (≈ 19.8 µM) and an MIC [6] of 16 µg/mL (≈ 39.5 µM).
With `O=C(Cc1cccs1)N[C@@H]1C(=O)N2C(C(=O)O)=C(Cl)CSC12` (some centres not stated) the MIC [1] was 0.125 µg/mL (≈ 0.348 µM), the MIC [2] was 0.5 µg/mL (≈ 1.39 µM) and the MIC [3] was 0.125 µg/mL (≈ 0.348 µM). The MIC [4] was 1 µg/mL (≈ 2.79 µM), the MIC [5] was 4 µg/mL (≈ 11.1 µM) and the MIC [6] was 1 µg/mL (≈ 2.79 µM).
`CO[C@@]1(NC(=O)COc2ccccc2)C(=O)N2C(C(=O)O)=C(Cl)CSC21` (some centres not stated) was tested, and the MIC [1] was 128 µg/mL (≈ 321 µM), the MIC [2] was > 128 µg/mL and the MIC [3] was 128 µg/mL (≈ 321 µM). The MIC [4] was > 128 µg/mL, the MIC [5] was > 128 µg/mL and the MIC [6] was > 128 µg/mL.
`N[C@@H](C(=O)N[C@@H]1C(=O)N2C(C(=O)O)=C(Cl)CS[C@H]12)c1ccccc1.O` [CEFACLOR] was tested, and the MIC [1] was 0.5 µg/mL, the MIC [2] was 1 µg/mL and the MIC [3] was 0.25 µg/mL. For the same compound, the MIC [4] was 1 µg/mL, the MIC [5] was 1 µg/mL and the MIC [6] was 2 µg/mL.
With `Nc1nc(CC(=O)N[C@@H]2C(=O)N3C(C(=O)O)=C(Cl)CSC23)cs1` (some centres not stated) the MIC [1] was 0.5 µg/mL (≈ 1.33 µM), the MIC [2] was 1 µg/mL (≈ 2.67 µM) and the MIC [3] was 0.125 µg/mL (≈ 0.333 µM). The MIC [4] was 1 µg/mL (≈ 2.67 µM), the MIC [5] was 1 µg/mL (≈ 2.67 µM) and the MIC [6] was 1 µg/mL (≈ 2.67 µM).
For `CO[C@@]1(NC(=O)Cc2cccs2)C(=O)N2C(C(=O)O)=C(Cl)CSC21` (some centres not stated), the MIC [1] was 128 µg/mL (≈ 329 µM), the MIC [2] was > 128 µg/mL and the MIC [3] was 128 µg/mL (≈ 329 µM). For the same compound, the MIC [4] was > 128 µg/mL, the MIC [5] was > 128 µg/mL and the MIC [6] was > 128 µg/mL.
In the case of `O=C(COc1ccccc1)N[C@@H]1C(=O)N2C(C(=O)O)=C(Cl)CSC12` (some centres not stated), the MIC [1] is reported as 0.25 µg/mL (≈ 0.678 µM), the MIC [7] is reported as 2 µg/mL (≈ 5.42 µM) and the MIC [2] is reported as 0.25 µg/mL (≈ 0.678 µM). It also gave an MIC [3] of 0.125 µg/mL (≈ 0.339 µM), an MIC [5] of 64 µg/mL (≈ 174 µM) and an MIC [6] of 2 µg/mL (≈ 5.42 µM).
